Our source for the MIC90 values is publication PMC6467542 (Bioorganic & Medicinal Chemistry, 2019).

The test system of assay [1] is M. tb (strain H37Rv). Put plainly: MIC90 against replicating M.tb (MABA). The format is cell-based, Mycobacterium tuberculosis. The following applies: Mycobacterium tuberculosis, aerobic (replicating) conditions, 90% inhibition of growth.
Assay [2] has as its system M. tb (strain H37Rv). Put plainly: MIC90 against non-replicating M.tb (LORA). The class given is cell-based, Mycobacterium tuberculosis. The following applies: Mycobacterium tuberculosis, H37RV, read-out: MIC90 LORA. How it is done:
In these assays, 1 is a potent inhibitor, with MICs of 0.08 and 0.12 µg/mL, respectively. Replacement of the naphthalene C-unit of 1 with various pyridyls produced analogues of considerably lower lipophilicity, with clogP values ranging from 6.89 down to 2.98.

A word on the MIC90: it is the lowest concentration that inhibits either 90% of growth or 90% of the strains tested, depending on the study.

≈ marks a conversion by molar mass, not a printed value.

On to `COc1ccc(C(O)(CCN(C)C)C(c2cc3cc(Br)ccc3nc2OC)c2cccc(OC)c2OC)cn1` (stereo not shown) [Compound 43], for which the results for the MIC90 in assay [1] and in assay [2] were 0.28 µg/mL (≈ 0.469 µM) and 0.54 µg/mL (≈ 0.905 µM), respectively.

As to `COc1cccc(C(c2cc3cc(Br)ccc3nc2OC)C(O)(CCN(C)C)c2ccc(C)nc2)c1OC` (stereo not shown) [Compound 24], the MIC90 in assay [1] came to 0.6 µg/mL (≈ 1.03 µM); in assay [2], 0.51 µg/mL (≈ 0.879 µM).

`COc1cccc(C(c2cc3cc(C#N)ccc3nc2OC)C(O)(CCN(C)C)c2ccc(C)nc2)c1OC` (stereo not shown) [Compound 25] registered an MIC90 in assay [1] of more than 5 µg/mL.

Regarding `COc1nc2ccc(Br)cc2cc1C(c1cccc(C)c1)C(O)(CCN(C)C)c1cc(C)nc(C)c1` (stereo not shown) [Compound 53], the MIC90 in assay [1] amounted to 0.11 µg/mL (≈ 0.201 µM); in assay [2], 0.49 µg/mL (≈ 0.893 µM).

For the compound `COc1ccnc(C(O)(CCN(C)C)C(c2cc3cc(C#N)ccc3nc2OC)c2cccc(OC)c2F)c1` (stereo not shown) [Compound 18], the figures for the MIC90 in assay [1] and in assay [2] were 2.3 µg/mL (≈ 4.33 µM) and 2.2 µg/mL (≈ 4.15 µM), respectively.

As to `COc1cc(C(O)(CCN(C)C)C(c2cc3cc(Br)ccc3nc2OC)c2cccc(OC)c2F)cnc1OC` (stereo not shown) [Compound 47], the MIC90 in assay [1] amounted to 0.07 µg/mL (≈ 0.114 µM); in assay [2], 0.11 µg/mL (≈ 0.179 µM).

In the case of `COc1cccc(C(c2cc3cc(C#N)ccc3nc2OC)C(O)(CCN(C)C)c2cc(C)cc(C)n2)c1OC` (stereo not shown) [Compound 10], the values for the MIC90 in assay [1] and in assay [2] were 0.54 µg/mL (≈ 0.999 µM) and 0.62 µg/mL (≈ 1.15 µM), respectively.

For the compound `COc1cccc(C(c2cc3cc(C#N)ccc3nc2OC)C(O)(CCN(C)C)c2cc(C)cc(C)n2)c1F` (stereo not shown) [Compound 12], the MIC90 in assay [1] is 2.3 µg/mL (≈ 4.35 µM); in assay [2], 2.8 µg/mL (≈ 5.3 µM).

As to `COc1cccc(C(c2cc3cc(Br)ccc3nc2OC)C(O)(CCN(C)C)c2ccnc(C)c2)c1F` (stereo not shown) [Compound 51], the MIC90 in assay [1] was determined as 0.47 µg/mL (≈ 0.827 µM); in assay [2], 0.58 µg/mL (≈ 1.02 µM).

`COc1cccc(C(c2cc3cc(C#N)ccc3nc2OC)C(O)(CCN(C)C)c2cnc(C)c(C)c2)c1F` (stereo not shown) [Compound 36]: the MIC90 worked out at 2.4 µg/mL (≈ 4.54 µM) in assay [1] and 3.3 µg/mL (≈ 6.24 µM) in assay [2].

Turning to `COc1cccc(C(c2cc3cc(C#N)ccc3nc2OC)C(O)(CCN(C)C)c2ncccc2C)c1F` (stereo not shown) [Compound 8], the MIC90 in assay [1] came to 3 µg/mL (≈ 5.83 µM); in assay [2], 3.5 µg/mL (≈ 6.8 µM).

Consider `COc1ccc(C(O)(CCN(C)C)C(c2cc3cc(Br)ccc3nc2OC)c2cccc(OC)c2F)cn1` (stereo not shown) [Compound 45], for which the MIC90 in assay [1] was 0.12 µg/mL (≈ 0.205 µM); in assay [2], 0.08 µg/mL (≈ 0.137 µM).

On to `COc1cccc(C(c2cc3cc(Br)ccc3nc2OC)C(O)(CCN(C)C)c2cncc(C)c2)c1F` (stereo not shown) [Compound 30], for which the MIC90 in assay [1] is 0.16 µg/mL (≈ 0.281 µM); in assay [2], 0.2 µg/mL (≈ 0.352 µM).

Take `COc1ccc(C(O)(CCN(C)C)C(c2cc3cc(C#N)ccc3nc2OC)c2cccc(OC)c2OC)cn1` (stereo not shown) [Compound 44]: the MIC90 in assay [1] was found to be 2.1 µg/mL (≈ 3.87 µM).

As to `COc1cccc(C(c2cc3cc(Br)ccc3nc2OC)C(O)(CCN(C)C)c2cccc(C)n2)c1OC` (stereo not shown) [Compound 2], the figures for the MIC90 in assay [1] and in assay [2] were 0.4 µg/mL (≈ 0.689 µM) and 0.13 µg/mL (≈ 0.224 µM), respectively.

On to `COc1cccc(C(c2cc3cc(Br)ccc3nc2OC)C(O)(CCN(C)C)c2cc(C)cc(C)n2)c1OC` (stereo not shown) [Compound 9], for which the MIC90 in assay [1] is 0.28 µg/mL (≈ 0.471 µM); in assay [2], 0.3 µg/mL (≈ 0.505 µM).

`COc1cccc(C(c2cc3cc(Br)ccc3nc2OC)C(O)(CCN(C)C)c2ccncc2C)c1F` (stereo not shown) [Compound 50]: the MIC90 in assay [1] came to 1 µg/mL (≈ 1.76 µM); in assay [2], 1.1 µg/mL (≈ 1.93 µM).

In the case of `COc1cccc(C(c2cc3cc(Br)ccc3nc2OC)C(O)(CCN(C)C)c2cnc(C)c(C)c2)c1F` (stereo not shown) [Compound 35], the MIC90 in assay [1] is 0.31 µg/mL (≈ 0.532 µM); in assay [2], 0.29 µg/mL (≈ 0.498 µM).

As to `COc1ccnc(C(O)(CCN(C)C)C(c2cc3cc(Br)ccc3nc2OC)c2cccc(OC)c2F)c1` (stereo not shown) [Compound 17], the MIC90 in assay [1] was determined as 1.2 µg/mL (≈ 2.05 µM); in assay [2], 0.61 µg/mL (≈ 1.04 µM).

`COc1cccc(C(c2cc3cc(C#N)ccc3nc2OC)C(O)(CCN(C)C)c2cncc(C)c2)c1OC` (stereo not shown) [Compound 29]: the MIC90 in assay [1] came to 4.2 µg/mL (≈ 7.98 µM); in assay [2], 3.8 µg/mL (≈ 7.22 µM).

In assay [1], `COc1nc2ccc(C#N)cc2cc1C(c1cccc2c1OCO2)C(O)(CCN(C)C)c1cccnc1OC` (stereo not shown) [Compound 42] showed an MIC90 of 2.1 µg/mL (≈ 3.99 µM).

Take `COc1cccc(C(O)(CCN(C)C)C(c2cc3cc(C#N)ccc3nc2OC)c2cccc3c2OCO3)n1` (stereo not shown) [Compound 16]: the MIC90 in assay [1] was 1.2 µg/mL (≈ 2.28 µM).
